Assay results: patent US7815950B2, “Ketomethionine ketals and derivatives thereof” (Evonik Degussa GmbH, priority 2006, dated 2010)
Like-named read-outs stand apart in the source and are kept apart here. Values belong to the compound of their own block, whether it stands above or below them.

Assays:
[1] = ruminants; published in WO 00/28835; cited from earlier work
[2] = HMBi applied to a porous support; compared with WO 00/28835; EP 1358805; cited from earlier work
[3] = European Commission report, 25 Apr. 2003; cited from earlier work
[4] = in vivo; cited from earlier work
[5] = feeding experiments with rodents and poultry; compared with MHA; cited from earlier work

melting point: 74 °C
Compound: CSCCC1(C(=O)O)OCCO1 [Example 2, 2-(2-(methylthio)ethyl)-1,3-dioxolane-2-carboxylic acid]

Compound: CSCCC(O)C(=O)OC(C)C (stereo not drawn) [HMBi]
biological value [1]: at least 50%
biological value [2]: comparable biological value
absorbed via the rumen wall [3]: approximately 50%

Compound: CSCCC(N)C(=O)OC(C)(C)C (racemic) [D,L-tert-butylmethionine, reference compound]
biological value [1]: 80%

melting point: 39.5 °C
Compound: CSCCC12OCC(CO1)OC2=O [Example 5, 4-(2-(methylthio)ethyl)-2,5,8-trioxabicyclo[2.2.2]octan-3-one]

Compound: CSCCC(O)C(=O)O (stereo not drawn) [MHA, hydroxymethylthiobutyric acid]
supplemented MHA that, after absorption in the small intestine, can pass into metabolism [4]: 20-40%

Compound: CSCCC(=O)C(=O)[O-].[Na+] [sodium salt of α-ketomethionine]
biological value [5]: significantly above that of MHA

melting point: 109 °C
Compound: CSCCC1(O)OCC(C)(C)COC1=O (racemic) [Example 4, rac-4,4-dimethyl-7-hydroxy-7-(2-(methylthio)ethyl)-6-oxacaprolactone]
